Measured values published in publication PMC11678425, “(-)-Syringaresinol Exerts an Antidepressant-like Activity in Mice by Noncompetitive Inhibition of the Serotonin Transporter” (Pharmaceuticals, 2024).

Key:
CUMS mice [1] = assay: Novelty suppressed feeding test (NSFT) in CUMS mice; assay type: in vivo, mouse; details: 10 mg/kg, i.p., 2 weeks
Description: (§1) C57BL/6 adult (6–8 weeks, body weight, 18–22 g) male mice were maintained and handled in a standard condition at the Experimental Animal Center of Southern Medical University (Guangzhou, China). Animal use was approved by the Animal Use and Care Committee of Southern Medical University (approved code: SMUL2021177, approved date: 12 December 2021). The CUMS procedure was carried out according to a protocol described previously. Except for those in the control group, mice were randomly exposed to two mild unpredictable stressors per day for 3 weeks. The stressors included water deprivation, restraint, tilted cage, wet/no bedding, rotation, peppermint, noise, and inverted light off/on. Mice in the control group were group housed without any stressors throughout the procedure. […] NSFT was performed after 16 h food deprivation, as described previously. The mouse was placed in an open field (24 × 40 × 14 cm), where a new chow was put in the center, and the latency time to bite food was counted over 10 min. Home cage feeding within a 20 min period was measured after the test. FST was carried out according to a protocol described previously. The mouse was placed into a beaker (Bomex, Beijing, China) with a height of 18 cm filled with water (22 ± 1 °C) for 6 min. The immobile time was measured during minutes 2–6. TST was performed according to a previous description. The mouse was suspended from a hook that hung from a suspension bar by placing a piece of adhesive tape on its tail about 1 cm away from the tip. The immobile time during minutes 2–6 was measured.

CUMS mice [2] = assay: Forced swim test (FST) in CUMS mice; assay type: in vivo, mouse; details: 10 mg/kg, i.p., 2 weeks
Description: as §1

CUMS mice [3] = assay: Tail suspension test (TST) in CUMS mice; assay type: in vivo, mouse; details: 10 mg/kg, i.p., 2 weeks
Description: as §1

CUMS mice [4] = assay: Home cage food consumption after NSFT; assay type: in vivo, mouse; details: all tested dosages, in comparison with the control group
Description: Figure 6 Animal behavioral tests. (A) Schematic illustration of animal behavioral test timeline. Mice were exposed to CUMS for 3 weeks, as described in Section 4. […] For the CUMS group, saline was given instead of drugs. NSFT was performed after 16–18 h food deprivation, followed by FST and TST. (B) NSFT. The latency time to food in NSFT was counted. (C) Home cage food consumption. Food consumed by individual mice in the home cage (g) within a 20 min period was measured after NSFT. (D) FST. The immobility time during a 2 to 6 min period in FST was measured. (E) TST. The immobility time during 2 to 6 min was counted. n = 8–10 mice/group. Bars represent the mean ± SEM. * p < 0.05 compared with the control or CUMS group, respectively, by one-way ANOVA followed by post hoc tests. ns, not significant.
NSFT was performed after 16 h food deprivation, as described previously. The mouse was placed in an open field (24 × 40 × 14 cm), where a new chow was put in the center, and the latency time to bite food was counted over 10 min. Home cage feeding within a 20 min period was measured after the test. FST was carried out according to a protocol described previously. The mouse was placed into a beaker (Bomex, Beijing, China) with a height of 18 cm filled with water (22 ± 1 °C) for 6 min. The immobile time was measured during minutes 2–6. […] The immobile time during minutes 2–6 was measured.

c-Fos [5] = assay: c-Fos immunohistochemistry in mPFC of CUMS mice; assay type: in vivo, mouse; details: 10 mg/kg i.p.
Description: Figure 7 SYR effects on the expression of c-Fos and synaptic proteins in mPFC. (A) Representative immunohistochemical images of c-Fos expression in mPFC under the indicated treatments. Immunohistochemistry of c-Fos was performed with mPFC slices as described in Section 4. The slices were re-probed with anti-DAPI antibody. Immunofluorescence images for c-Fos (green) and DAPI (blue) were acquired by confocal microscopy. (B) Quantitative analysis for c-Fos expression in mPFC with various treatments. Protein expression is expressed as a percentage of c-Fos fluorescence measured in the control group. Bars represent the mean ± SEM (n = 4). * p < 0.05, ** p < 0.01 compared with the control or CUMS group by one-way ANOVA followed by post hoc tests, respectively. (C) Representative immunoblots of the synaptic proteins BDNF, PSD-95, GluA1, and vGluT1 with various treatments. (D–G) Quantification of the expression of the synaptic proteins BDNF (D), PSD-95 (E), GluA1 (F), and vGluT1 (G). The expression level is expressed as a percentage of the integrated density obtained from the control group. Bars represent the mean ± SEM (n = 4). * p < 0.05, ** p < 0.01 by one-way ANOVA followed by post hoc tests.
Mouse mPFC and hippocampal slices were prepared as previously described. […]

c-Fos [6] = assay: c-Fos immunohistochemistry in hippocampus of CUMS mice; assay type: in vivo, mouse; details: same dosage as fluoxetine (10 mg/kg i.p.)
From the text: (§2) Figure 8 SYR effects on the expression of c-Fos and synaptic proteins in the hippocampus. (A) Representative immunohistochemical images of c-Fos expression in the hippocampus with the indicated treatments. (B) Quantitative analysis for hippocampal c-Fos expression with various treatments. Protein expression level is expressed as a percentage of c-Fos fluorescence measured in the control group. Bars represent the mean ± SEM (n = 4). ** p < 0.01 compared with the control or CUMS group by one-way ANOVA followed by post hoc tests. (C) Representative immunoblots of the synaptic proteins BDNF, PSD-95, GluA1, and vGluT1 with various treatments. (D–G) Quantification of the expression of synaptic proteins BDNF (D), PSD-95 (E), GluA1 (F), and vGluT1 (G). The expression level is expressed as a percentage of the integrated density obtained from the control group. Bars represent the mean ± SEM (n = 4). * p < 0.05, ** p < 0.01 by one-way ANOVA followed by post hoc tests.
Mouse mPFC and hippocampal slices were prepared as previously described. Briefly, mice were deeply anesthetized with 4% pentobarbital sodium (Sigma-Aldrich, Saint Louis, MI, USA), and perfused transcardially with PBS, followed by 4% phosphate-buffered paraformaldehyde. […]

[7] = test system: BDNF, PSD-95, GluA1, and vGluT1; assay: Immunoblot of synaptic proteins in hippocampus of CUMS mice; assay type: in vivo, mouse; details: same dosage as fluoxetine (10 mg/kg i.p.)
From the text: as §2
Synaptic proteins were extracted from mPFC or hippocampus tissues using RIPA lysis buffer, respectively. Expression of the indicated proteins under various treatments was then analyzed by immunoblotting, as previously reported. […] Quantification of immunoreactive protein bands was performed using Image J v1.53u, and GAPDH was used as an internal reference to normalize expression levels of those proteins, respectively.

CUMS mice [8] = details: all tested dosages, i.p.
[9] = Daily body weight during drug administration; details: all tested dosages, 14-day administration, in comparison with the control group
5-HT1A receptor = test system: 5-HT1A receptor; set-up: method as in PMID 27508501; details: higher potency than its inhibition of SERT activity; cited from earlier work
[10] = set-up: method as in PMID 21869687, PMID 25500685; details: clinically observed; cited from earlier work

| SMILES | CUMS-induced increase in latency to food in NSFT (CUMS mice [1]) | CUMS-induced increase in immobility in FST (CUMS mice [2]) | CUMS-induced increase in immobility in TST (CUMS mice [3]) | home cage food consumption (CUMS mice [4]) | CUMS-induced decrease in expression of c-Fos in mPFC (c-Fos [5]) | CUMS-induced decrease in expression of c-Fos in the hippocampus (c-Fos [6]) | CUMS-induced decrease in expression of synaptic proteins in the hippocampus [7] | fatality rate (CUMS mice [8]) | daily body weight changes [9] | action at 5-HT1A receptor (5-HT1A receptor) | sexual dysfunction [10] | weight gain [10] |
| --- | --- | --- | --- | --- | --- | --- | --- | --- | --- | --- | --- | --- |
| CNCCC(Oc1ccc(C(F)(F)F)cc1)c1ccccc1 (stereo not drawn) [fluoxetine, reference compound] | remarkably alleviated | remarkably alleviated | remarkably alleviated | little effect | reversed | effectively alleviate | effectively alleviate | zero fatality rate | little effect | – | – | – |
| N#Cc1ccc2[nH]cc(CCCCN3CCN(c4ccc5oc(C(N)=O)cc5c4)CC3)c2c1 [vilazodone] | – | – | – | – | – | – | – | – | – | partial agonist | not associated with sexual dysfunction | reduce weight gain |
